US20260217704A1, “INDOLONE DERIVATIVE HAVING IRAK4 INHIBITORY ACTIVITY, AND PREPARATION METHOD THEREFOR AND USE THEREOF” (DOVETREE MEDICINES UNUS, INC., priority 2023, published 2026)

Molecular target: T1, IRAK4 kinase protein (Homo sapiens, UniProt Q9NWZ3)
T1 sequence (Q9NWZ3 1-460): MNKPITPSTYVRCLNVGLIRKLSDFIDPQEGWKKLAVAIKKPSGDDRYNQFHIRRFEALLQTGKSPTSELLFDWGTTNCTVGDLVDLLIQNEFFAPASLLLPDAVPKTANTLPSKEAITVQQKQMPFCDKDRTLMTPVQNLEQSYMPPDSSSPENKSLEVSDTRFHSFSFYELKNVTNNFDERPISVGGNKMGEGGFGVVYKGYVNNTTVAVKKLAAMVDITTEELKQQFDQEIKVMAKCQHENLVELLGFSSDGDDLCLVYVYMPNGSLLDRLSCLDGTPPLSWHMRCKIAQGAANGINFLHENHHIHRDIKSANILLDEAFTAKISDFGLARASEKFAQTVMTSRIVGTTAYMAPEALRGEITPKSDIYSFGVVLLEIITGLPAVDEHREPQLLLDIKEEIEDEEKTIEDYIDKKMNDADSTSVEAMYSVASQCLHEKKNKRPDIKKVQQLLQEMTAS
Experiment: IRAK4 kinase inhibition assay (Cisbio HTRF KinEASE-STK S1 kit)
Type: biochemical
Conditions: IRAK4 10 nM, ATP 200 μM, 37° C. 2 hours, read-out: IRAK4 inhibitory activity IC50
Procedure: Cisbio HTRF KinEASE-STK SI kit (62S1PEB) was used in this experiment. The experiment/detection buffer, STK Substrate 1-biotin, Streptavidin-XL665, and STK Antibody-Crypatete were all contained in the kit.
The compound/DMSO was added to a 384 plate (PerkinElmer 6008280) using Echo 665. Subsequently, 5 μL of IRAK4 kinase protein dissolved in an experimental buffer [1 volume of 5×kinase buffer+20 mM magnesium chloride (Sigma) solution+1 mM DTT (Alfa Aesar) solution+4 volumes of deionized water] at 2 folds reaction concentration was added (final concentration: 10 nM). The shallow well plate was sealed, shaken, and then centrifuged at 1000 rpm for 1 minute and incubated at room temperature for 5 minutes. 5 μL of a 1:1 mixture of STK Substrate 1-biotin (final concentration: 1 μM) and ATP (Sigma A1852) (final concentration: 200 μM) at 2 folds reaction concentration prepared with the experimental buffer was then added. The shallow well plate was sealed, shaken, then centrifuged at 1000 rpm for 1 minute, and incubated at 37° C. for 2 hours. Subsequently, 10 μL of a 1:1 mixed solution of Streptavidin-XL665 (final concentration: 62.5 nM) and STK-antibody-cryptate dissolved with the detection buffer was added. The shallow well plate was sealed, shaken, then centrifuged at 1000 rpm for 1 minute, and incubated at room temperature for 1 hour. Subsequently, numerical values were read at the wavelength of 620 nm/665 nm by a microplate reader. The data were analyzed by Prism 9.3 software, and the IC50 value of IRAK4 kinase inhibition was fitted by four-parameter Logistic equation. After detection, the compound of the present disclosure has a better IRAK4 kinase inhibitory activity.

`O=C1Nc2ccc(S(=O)(=O)Nc3ccc(F)cc3)cc2/C1=C/c1cc2ccc(N3CCNCC3)cc2[nH]1` [Compound 7] and `Cc1c(/C=C2\C(=O)Nc3ccc(S(=O)(=O)Nc4ccc(F)cc4)cc32)[nH]c2cc(N3CCNCC3)ccc12` [Compound 8] cannot be ordered by IC50: less than 100 nM for the first, less than 100 nM for the second.

Compared with `O=C1Nc2ccc(S(=O)(=O)Nc3ccc(F)cc3)cc2/C1=C/Nc1cn(C2CCCCC2)nc1C(F)F` [Compound 5], `O=C1Nc2ccc(S(=O)(=O)Nc3ccc(F)cc3)cc2/C1=C/c1cn(C2CCCCC2)nc1C(F)F` [Compound 2] is higher in IC50: less than 100 nM for the first, 100 to 500 nM for the second. The first is the more potent here.

First: O=C1Nc2ccc(S(=O)(=O)Nc3ccc(F)cc3)cc2/C1=C/Nc1cnn2cc(N3CCNCC3)ccc12 [Compound 6]
Second: O=C1Nc2ccc(S(=O)(=O)Nc3ccc(F)cc3)cc2/C1=C\c1cc2cc(N3CCNCC3)ccc2o1 [Compound 3]
The IC50 of the first is higher: 500 to 1000 nM for the first, less than 100 nM for the second.

Compared with `CCNS(=O)(=O)c1ccc2c(c1)/C(=C\c1cc3cc(N4CCNCC4)ccc3o1)C(=O)N2` [Compound 4], `Cc1ccc(/C=C2/C(=O)Nc3ccc(S(=O)(=O)Nc4ccc(F)cc4)cc32)o1` [Compound 1] is higher in IC50: 100 to 500 nM for the first, greater than 1000 nM for the second.
